# In patent US20220031813A1, “INHIBITOR OF EXTRACELLULAR TRAP FORMATION IN LEUKOCYTES” (priority 2013, published 2022):
# How the values were obtained:
# human neutrophils [1] = assay: Rate of NETs formation in PMA-stimulated neutrophils after pre-treatment, counted by confocal microscopy; type: cell-based; conditions: pre-treatment 10 μM for 30 minutes, then PMA 25 nM
# human neutrophils [2] = assay: Specificity experiment: inhibition of NETs formation by DNA concentration in the culture supernatant; type: cell-based; conditions: n=3, p<0.01, FIG. 10
# Description: About 1 hour after the isolation of the neutrophils described in “1. Method of isolating human neutrophils” in Example 2, the neutrophils were pre-treated. On an 8-well microslide (Cat. No. ib 80826 Ibidi (registered trademark)), the neutrophils were seeded in 400 μl of culture DMEM+2% human serum Alb (serum human albumin; Product No. A9080 Sigma+4 mM L-glutamine) at a rate of about 1.0×10^5 cells/well, and stimulated with PMA (final concentration: 25 nM, stock: 10 mM in DMSO, Sigma Prod No. P8139). At thirty minutes before the stimulation, and at every one hour or every two hours after the stimulation, 200 μg/ml of human lactoferrin (stock: 100 mg/ml, 200 μl; Cat. No. SIGL6793, SIGMA) was added to perform inhibition [FIG. 2].
# The culture supernatant was recovered and centrifuged at 200×g for 10 minutes, and the supernatant was transferred to a new microscopic centrifuge tube. The DNA amount was measured by use of Picogreen dsDNA assay reagent (P11496 Invitrogen) in accordance with an accompanying protocol. Treatment with human lactoferrin at one hour and two hours after the stimulation was a similar effect to the prior pre-treatment, the DNA concentration in the culture supernatant decreased, resulting in suppression of the release of the DNAs by the NETs [FIG. 2]. […]
# [3] = bovine proteins; cited from earlier work
Molecule,"formation of the NETs at plateau, compared with stimulation merely with PMA (human neutrophils [1])",inhibition of the formation of the NETs (human neutrophils [2]),Isoelectric point [3]
"c1ccc2c(c1)[I+]c1ccccc1-2 [DPI, diphenyleneiodoniumchloride, reference compound]",⅓,–,–
lactoperoxidase [reference compound],–,Neither lactoperoxidase nor angiogenin inhibited,8.0
